Measurements: ChEMBL document CHEMBL2385021, “Discovery of MK-3168: A PET Tracer for Imaging Brain Fatty Acid Amide Hydrolase” (ACS Med Chem Lett, 2013)

Legend:
[1] = Lipophilicity, log D of the compound at pH 7.3 by HPLC analysis; assay type: physicochemical; conditions: buffer
[2] = Inhibition of rhesus monkey FAAH expressed in CHO cell lysates assessed as arachidonyl-7-amino-4-methylcoumarin amide hydrolysis to 7-amino 4-methyl coumarin preincubated for 15 mins prior to substrate addition measured after 1 to 3 hrs by fluorescence assay; assay type: cell-free, Macaca mulatta
[3] = biological target: T1, Fatty-acid amide hydrolase 1 (Rattus norvegicus, UniProt P97612); test: Inhibition of rat FAAH expressed in CHO cell lysates assessed as arachidonyl-7-amino-4-methylcoumarin amide hydrolysis to 7-amino 4-methyl coumarin preincubated for 15 mins prior to substrate addition measured after 1 to 3 hrs by fluorescence assay; assay type: cell-free
T1 sequence (P97612 whole entry): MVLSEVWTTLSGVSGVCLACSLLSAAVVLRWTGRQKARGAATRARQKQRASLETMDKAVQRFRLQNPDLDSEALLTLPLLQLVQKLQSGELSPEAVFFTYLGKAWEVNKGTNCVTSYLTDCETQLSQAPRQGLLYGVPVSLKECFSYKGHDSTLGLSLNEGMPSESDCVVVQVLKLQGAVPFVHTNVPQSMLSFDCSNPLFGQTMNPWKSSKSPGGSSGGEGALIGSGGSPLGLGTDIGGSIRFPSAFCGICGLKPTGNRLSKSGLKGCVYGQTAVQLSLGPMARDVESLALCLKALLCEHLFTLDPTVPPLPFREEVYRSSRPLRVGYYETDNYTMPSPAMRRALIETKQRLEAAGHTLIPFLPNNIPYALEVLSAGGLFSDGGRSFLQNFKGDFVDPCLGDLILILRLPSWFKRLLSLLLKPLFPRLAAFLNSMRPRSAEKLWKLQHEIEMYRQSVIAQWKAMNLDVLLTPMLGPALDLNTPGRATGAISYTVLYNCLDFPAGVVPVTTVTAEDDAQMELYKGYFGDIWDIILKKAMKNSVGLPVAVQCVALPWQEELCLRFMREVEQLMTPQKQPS

[4] = biological target: T2, Fatty-acid amide hydrolase 1 (Homo sapiens, UniProt O00519); test: Inhibition of human FAAH expressed in CHO cell lysates assessed as arachidonyl-7-amino-4-methylcoumarin amide hydrolysis to 7-amino 4-methyl coumarin preincubated for 15 mins prior to substrate addition measured after 1 to 3 hrs by fluorescence assay; assay type: cell-free
T2 sequence (O00519 whole entry): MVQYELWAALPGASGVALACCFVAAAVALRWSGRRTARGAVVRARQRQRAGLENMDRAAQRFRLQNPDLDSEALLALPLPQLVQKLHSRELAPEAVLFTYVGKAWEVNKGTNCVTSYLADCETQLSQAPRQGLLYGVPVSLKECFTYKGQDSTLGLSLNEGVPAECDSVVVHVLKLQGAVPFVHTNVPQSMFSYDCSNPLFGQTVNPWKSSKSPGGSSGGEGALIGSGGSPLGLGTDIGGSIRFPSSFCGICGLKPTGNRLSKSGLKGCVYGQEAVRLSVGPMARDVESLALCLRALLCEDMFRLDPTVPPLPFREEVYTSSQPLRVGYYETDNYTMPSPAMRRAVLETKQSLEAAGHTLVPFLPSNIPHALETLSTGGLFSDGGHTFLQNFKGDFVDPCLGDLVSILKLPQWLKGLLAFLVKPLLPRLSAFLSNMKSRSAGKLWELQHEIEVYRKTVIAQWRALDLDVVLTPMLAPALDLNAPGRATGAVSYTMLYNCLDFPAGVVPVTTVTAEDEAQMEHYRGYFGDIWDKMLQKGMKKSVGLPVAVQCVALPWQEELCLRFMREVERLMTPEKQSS

Cannabinoid receptor 1 = Cannabinoid receptor 1 (Homo sapiens, UniProt P21554); test: Inhibition of CB1 receptor (unknown origin)
Chain of Cannabinoid receptor 1 (P21554 whole entry): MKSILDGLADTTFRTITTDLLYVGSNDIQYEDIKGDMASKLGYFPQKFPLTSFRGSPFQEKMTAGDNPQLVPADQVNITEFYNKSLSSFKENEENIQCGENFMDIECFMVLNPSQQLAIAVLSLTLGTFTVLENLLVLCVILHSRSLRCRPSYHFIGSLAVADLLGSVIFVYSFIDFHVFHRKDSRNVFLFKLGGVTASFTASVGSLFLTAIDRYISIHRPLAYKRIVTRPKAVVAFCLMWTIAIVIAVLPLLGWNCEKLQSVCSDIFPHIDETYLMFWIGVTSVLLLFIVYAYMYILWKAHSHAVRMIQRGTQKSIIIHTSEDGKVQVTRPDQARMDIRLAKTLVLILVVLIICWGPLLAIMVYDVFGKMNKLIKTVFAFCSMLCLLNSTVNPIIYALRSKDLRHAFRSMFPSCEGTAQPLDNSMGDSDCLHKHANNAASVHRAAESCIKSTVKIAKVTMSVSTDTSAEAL

[5] = biological target: T3, Fatty-acid amide hydrolase 1 (Homo sapiens) (UniProt O00519); test: (§1) Binding affinity to FAAH in human cortical homogenates; conditions: tested as the 3H-labelled form
T3 sequence (whole entry): T2 sequence (O00519 whole entry)

Phosphodiesterase 4 = Phosphodiesterase 4 (Homo sapiens, UniProt P27815+Q08499+Q07343+Q08493); test: Inhibition of phosphodiesterase PDE4 (unknown origin); assay type: protein assay
Macaca mulatta [6] = organism: Macaca mulatta; test: Inhibition of FAAH in rhesus monkey whole blood; assay type: tissue-based
Cytochrome P450 3A4 = Cytochrome P450 3A4 (Homo sapiens, UniProt P08684); test: Inhibition of CYP3A4 (unknown origin); assay type: ADME
Chain of Cytochrome P450 3A4 (P08684 whole entry): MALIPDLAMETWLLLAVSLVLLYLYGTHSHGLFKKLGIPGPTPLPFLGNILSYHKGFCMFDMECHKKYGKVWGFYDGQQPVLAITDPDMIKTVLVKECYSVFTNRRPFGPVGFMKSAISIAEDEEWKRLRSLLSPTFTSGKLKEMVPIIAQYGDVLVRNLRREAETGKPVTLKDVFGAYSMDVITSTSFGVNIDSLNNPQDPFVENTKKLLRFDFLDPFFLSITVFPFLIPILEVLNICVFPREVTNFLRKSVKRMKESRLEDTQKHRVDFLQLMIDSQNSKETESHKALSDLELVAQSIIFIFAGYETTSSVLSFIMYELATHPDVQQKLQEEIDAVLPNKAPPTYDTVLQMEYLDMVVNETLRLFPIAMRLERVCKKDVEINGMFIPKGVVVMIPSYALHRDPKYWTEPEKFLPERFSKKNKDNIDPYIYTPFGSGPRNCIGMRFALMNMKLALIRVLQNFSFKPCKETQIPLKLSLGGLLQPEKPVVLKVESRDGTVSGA

[7] = Ratio of drug level in brain to plasma in rat at 2 mg/kg, po after 2 hrs; assay type: ADME, organism-based; parameters: dose 2 mg/kg, route oral; conditions: read-out: BPR
[8] = biological target: T3, Fatty-acid amide hydrolase 1 (Homo sapiens); test: Inhibition of FAAH in human whole blood
[9] = Solubility of the compound in saline buffer at pH 3 to 8 in presence of 10% ethanol; assay type: physicochemical
[10] = biological target: Voltage-gated inwardly rectifying potassium channel KCNH2 (Homo sapiens, UniProt Q12809); test: Inhibition of human ERG
Chain of Voltage-gated inwardly rectifying potassium channel KCNH2 (Q12809 whole entry): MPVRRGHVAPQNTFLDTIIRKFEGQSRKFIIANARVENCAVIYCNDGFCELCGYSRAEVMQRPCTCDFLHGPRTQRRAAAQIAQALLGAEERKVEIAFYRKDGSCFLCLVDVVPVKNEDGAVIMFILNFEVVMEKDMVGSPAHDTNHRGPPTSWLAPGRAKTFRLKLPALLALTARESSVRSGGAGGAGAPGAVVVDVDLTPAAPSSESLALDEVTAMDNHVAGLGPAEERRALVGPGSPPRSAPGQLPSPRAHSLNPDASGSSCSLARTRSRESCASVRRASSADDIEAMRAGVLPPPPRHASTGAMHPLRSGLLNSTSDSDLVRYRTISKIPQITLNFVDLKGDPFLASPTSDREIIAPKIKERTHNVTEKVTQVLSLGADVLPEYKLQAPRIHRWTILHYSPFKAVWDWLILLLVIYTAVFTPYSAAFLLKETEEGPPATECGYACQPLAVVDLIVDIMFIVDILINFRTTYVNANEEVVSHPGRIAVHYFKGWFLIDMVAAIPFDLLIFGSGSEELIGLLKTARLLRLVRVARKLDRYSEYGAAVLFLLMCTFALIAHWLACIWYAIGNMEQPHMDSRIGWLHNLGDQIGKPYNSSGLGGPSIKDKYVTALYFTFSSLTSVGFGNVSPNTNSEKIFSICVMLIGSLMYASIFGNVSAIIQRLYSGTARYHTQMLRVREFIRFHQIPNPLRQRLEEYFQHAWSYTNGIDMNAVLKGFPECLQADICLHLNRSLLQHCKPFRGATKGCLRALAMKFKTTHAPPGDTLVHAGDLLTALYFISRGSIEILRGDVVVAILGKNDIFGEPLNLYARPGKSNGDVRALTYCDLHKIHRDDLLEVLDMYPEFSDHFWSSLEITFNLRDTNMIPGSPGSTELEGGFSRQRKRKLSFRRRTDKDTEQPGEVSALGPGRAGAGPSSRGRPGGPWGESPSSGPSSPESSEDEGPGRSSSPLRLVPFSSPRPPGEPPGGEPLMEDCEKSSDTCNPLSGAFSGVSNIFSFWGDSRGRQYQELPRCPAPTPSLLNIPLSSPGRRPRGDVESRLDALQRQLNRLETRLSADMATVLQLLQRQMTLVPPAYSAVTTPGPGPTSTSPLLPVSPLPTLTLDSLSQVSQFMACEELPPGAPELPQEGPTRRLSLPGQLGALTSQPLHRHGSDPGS

Cannabinoid receptor 2 = Cannabinoid receptor 2 (Homo sapiens, UniProt P34972); test: Inhibition of CB2 receptor (unknown origin)
Chain of Cannabinoid receptor 2 (P34972 whole entry): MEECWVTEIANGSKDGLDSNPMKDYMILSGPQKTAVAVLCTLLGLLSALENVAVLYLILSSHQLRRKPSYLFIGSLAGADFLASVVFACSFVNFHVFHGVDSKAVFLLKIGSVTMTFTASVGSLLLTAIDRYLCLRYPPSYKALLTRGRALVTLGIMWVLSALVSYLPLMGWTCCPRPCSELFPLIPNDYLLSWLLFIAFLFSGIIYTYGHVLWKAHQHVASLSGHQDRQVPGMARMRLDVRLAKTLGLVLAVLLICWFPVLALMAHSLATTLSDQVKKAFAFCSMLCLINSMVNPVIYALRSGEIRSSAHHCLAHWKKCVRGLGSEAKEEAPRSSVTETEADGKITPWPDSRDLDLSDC

[11] = Activity at rat P-glycoprotein; assay type: ADME
Brain [12] = test: Drug uptake in rat brain at 2 mg/kg, po after 2 hrs; assay type: ADME, organism-based; parameters: dose 2 mg/kg, route oral; conditions: in vivo
[13] = Chemical stability of the compound; assay type: physicochemical
Acetylcholinesterase = Acetylcholinesterase (Homo sapiens, UniProt P22303); test: Inhibition of acetyl cholinesterase (unknown origin)
Chain of Acetylcholinesterase (P22303 whole entry): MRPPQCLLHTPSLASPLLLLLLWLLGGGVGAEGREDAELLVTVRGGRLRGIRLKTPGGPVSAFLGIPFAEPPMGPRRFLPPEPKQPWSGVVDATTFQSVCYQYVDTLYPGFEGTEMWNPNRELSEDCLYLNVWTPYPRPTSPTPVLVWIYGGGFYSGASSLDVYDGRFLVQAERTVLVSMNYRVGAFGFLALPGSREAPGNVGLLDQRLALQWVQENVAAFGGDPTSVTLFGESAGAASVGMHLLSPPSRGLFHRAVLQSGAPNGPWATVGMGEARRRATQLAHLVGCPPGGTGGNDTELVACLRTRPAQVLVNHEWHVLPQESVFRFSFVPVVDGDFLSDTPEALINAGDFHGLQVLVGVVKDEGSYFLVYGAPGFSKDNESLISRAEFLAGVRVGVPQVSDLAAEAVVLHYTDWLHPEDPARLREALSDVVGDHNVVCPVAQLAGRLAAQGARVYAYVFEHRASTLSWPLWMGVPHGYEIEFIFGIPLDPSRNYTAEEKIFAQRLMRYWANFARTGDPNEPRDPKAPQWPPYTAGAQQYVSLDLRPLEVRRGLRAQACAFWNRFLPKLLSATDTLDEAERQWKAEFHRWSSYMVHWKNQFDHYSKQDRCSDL

[14] = Inhibition of L-type calcium channel diltiazem binding site (unknown origin); parameters: species or system Homo sapiens
Macaca mulatta [15] = organism: Macaca mulatta; test: (§2) Binding affinity to FAAH in rhesus monkey cortical homogenates; assay type: tissue-based; conditions: tested as the 3H-labelled form
[16] = Activity at human P-glycoprotein; assay type: ADME
[17] = biological target: T2, Fatty-acid amide hydrolase 1; test: as §1
[18] = biological target: T1, Fatty-acid amide hydrolase 1; test: Binding affinity to FAAH in rat cortical homogenates
[19] = as §2; assay type: tissue-based, Macaca mulatta
Striatum = test: Drug uptake in rhesus monkey striatum at 5 mCi, iv after 45 mins by positron emission tomographic analysis; assay type: ADME, organism-based, Macaca mulatta; conditions: in vivo, 0.75 h
[20] = Drug uptake in rhesus monkey frontal cortex at 5 mCi, iv after 45 mins by positron emission tomographic analysis; assay type: ADME, organism-based, Macaca mulatta; conditions: in vivo, 0.75 h
Hippocampus = test: Drug uptake in rhesus monkey hippocampal regions at 5 mCi, iv after 45 mins by positron emission tomographic analysis; assay type: ADME, organism-based, Macaca mulatta; conditions: in vivo, 0.75 h
Brain [21] = test: Drug uptake in iv dosed rhesus monkey brain after 45 mins measured per mCi/kg by positron emission tomographic analysis; assay type: ADME, organism-based, Macaca mulatta; conditions: in vivo, 0.75 h
[22] = Apparent permeability of the compound; assay type: ADME; conditions: not told

Cn1cnc(-c2ccc([C@H]3C[C@@H]3C(=O)NCCF)cc2)c1Sc1ccc(Cl)cn1
logD [1]: 3 | IC50 [2]: 7 nM | IC50 [3]: 4.2 nM

CN(C)C(=O)[C@H]1C[C@@H]1c1ccc(-c2nc[nH]c2Sc2ccc(Cl)cn2)cc1
IC50 [3]: 145 nM

CN(C)C(=O)[C@H]1C[C@@H]1c1ccc(-c2c(Sc3ccc(Cl)cn3)ncn2C)cc1
IC50 [3]: 1390 nM | IC50 [4]: 839 nM

CN(C)C(=O)[C@H]1C[C@@H]1c1ccc(-c2ncn(C)c2Sc2ccc(Cl)cc2)cc1
logD [1]: 4.2 | IC50 [2]: 1.4 nM | IC50 [3]: 0.6 nM

CN(C)C(=O)[C@H]1C[C@@H]1c1ccc(-c2ncn(CCF)c2Sc2ccc(Cl)cn2)cc1
IC50 [3]: 4.8 nM

Cn1cnc(-c2ccc([C@H]3C[C@@H]3C(=O)NCCF)cc2)c1Sc1ccc(Cl)cc1
logD [1]: 4 | IC50 [2]: 3.1 nM | IC50 [3]: 1.4 nM | IC50 [4]: 1 nM

Cc1nc(-c2ccc([C@H]3C[C@@H]3C(=O)N(C)C)cc2)c(Sc2ccc(Cl)cn2)n1C
IC50 [3]: 34 nM | IC50 [4]: 13.6 nM

CN(C)C(=O)[C@H]1C[C@@H]1c1ccc(-c2ncn(C)c2Sc2ccc(Cl)cn2)cc1 [MK-3168]
IC50 (Cannabinoid receptor 1): 30000 nM | Bmax [5]: 15 nM | IC50 (Phosphodiesterase 4): 9750 nM | IC90 (Macaca mulatta [6]): 29 nM | IC50 (Cytochrome P450 3A4): > 50000 nM | Kp at 2 h [7]: 7 | IC90 [8]: 5.5 nM | solubility [9]: soluble | IC50 [10]: 37000 nM | IC50 (Cannabinoid receptor 2): 150000 nM | Activity [11]: Not Active | Drug uptake (Brain [12]): Active | logD [1]: 3.3 | Stability [13]: 24 h | IC50 [2]: 5.5 nM | IC50 (Acetylcholinesterase): 1630 nM | IC50 [3]: 1.7 nM | IC50 [14]: 16000 nM | Bmax (Macaca mulatta [15]): 21 nM | Activity [16]: Not Active

CN(C)C(=O)[C@H]1C[C@@H]1c1ccc(-c2nc(C3CC3)n(C)c2Sc2ccc(Cl)cn2)cc1
IC50 [3]: 106 nM | IC50 [4]: 48 nM

[3H]C([3H])([3H])n1cnc(-c2ccc([C@H]3C[C@@H]3C(=O)N(C)C)cc2)c1Sc1ccc(Cl)cn1
Kd [17]: 0.8 nM | Kd [18]: 0.6 nM | Kd [19]: 1.4 nM

NC(=O)[C@H]1C[C@@H]1c1ccc(-c2nn(C3CC3)cc2Sc2ccc(Cl)cc2)cc1
logD [1]: 3.8 | IC50 [2]: 33 nM | IC50 [3]: 4.2 nM | IC50 [4]: 5 nM

CNC(=O)[C@H]1C[C@@H]1c1ccc(-c2ncn(C)c2Sc2ccc(Cl)cn2)cc1
logD [1]: 2.9 | IC50 [3]: 6 nM

Cn1cnc(-c2ccc([C@H]3C[C@@H]3C(N)=O)cc2)c1Sc1ccc(Cl)cc1
logD [1]: 3.6 | IC50 [3]: 1.7 nM | IC50 [4]: 0.8 nM

CN(CCF)C(=O)[C@H]1C[C@@H]1c1ccc(-c2ncn(C)c2Sc2ccc(Cl)cc2)cc1
logD [1]: 4.3 | IC50 [2]: 8.8 nM | IC50 [3]: 1.3 nM | IC50 [4]: 1.1 nM

CNC(=O)[C@H]1C[C@@H]1c1ccc(-c2ncn(C)c2Sc2ccc(Cl)cc2)cc1
logD [1]: 3.8 | IC50 [3]: 1.4 nM | IC50 [4]: 0.5 nM

[11CH3]n1cc(Sc2ccc(Cl)cc2)c(-c2ccc3ccc(C(N)=O)nc3c2)n1
logD [1]: 4.2 | IC50 [2]: 0.8 nM | IC50 [3]: 0.4 nM | IC50 [4]: 0.5 nM

CN(C)C(=O)[C@H]1C[C@@H]1c1ccc(-c2ncn([11CH3])c2Sc2ccc(Cl)cn2)cc1 [MK-3168 C-11]
Drug uptake (Striatum): Active | Drug uptake [20]: Active | Drug uptake (Hippocampus): Active | SUV (Brain [21]): > 1 nCi/cc | Papp [22]: 27 ×10⁻⁶ cm/s

CN(CCF)C(=O)[C@H]1C[C@@H]1c1ccc(-c2ncn(C)c2Sc2ccc(Cl)cn2)cc1
logD [1]: 3.4 | IC50 [2]: 27 nM | IC50 [3]: 3 nM

Cn1cnc(-c2ccc([C@H]3C[C@@H]3C(N)=O)cc2)c1Sc1ccc(Cl)cn1
logD [1]: 2 | IC50 [3]: 12 nM
